From the supplement of paper PMC8967900

The compounds below were run on MOLT-16 (assay: selective drug sensitivity score (sDSS, relative to normal bone marrow) (sDSS (score)); higher = more potent and effective on the cell line relative to normal bone marrow cells). Settings: 72 h.
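Further: ALL cell lines in 384-well plates, five doses spanning 10,000-fold, each plate scaled between vehicle and 100 µmol/L benzalkonium chloride controls, sDSS an adapted area-under-curve metric.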

SMILES	selective drug sensitivity score
C1=N/C2=N/c3ccc(OCCN4CCCC4)c(c3)COC/C=C/COCc3cccc(c3)C(=C1)N2 [Pacritinib] (top concentration 10000 nM)	-5.6
Cc1[nH]c2ccccc2c1CCNCc1ccc(/C=C/C(=O)NO)cc1 [Panobinostat] (top concentration 1000 nM)	9.04
Cc1ccc(Nc2nccc(N(C)c3ccc4c(C)n(C)nc4c3)n2)cc1S(N)(=O)=O [Pazopanib] (top concentration 10000 nM)	1.94
Nc1nc2[nH]cc(CCc3ccc(C(=O)N[C@@H](CCC(=O)O)C(=O)O)cc3)c2c(=O)[nH]1 [Pemetrexed] (top concentration 10000 nM)	28.4
Cc1ccc(C(=O)Nc2ccc(CN3CCN(C)CC3)c(C(F)(F)F)c2)cc1C#Cc1cnc2cccnn12 [Ponatinib] (top concentration 1000 nM)	6.62
C[C@]12C=CC(=O)C=C1CC[C@@H]1[C@@H]2[C@@H](O)C[C@@]2(C)[C@H]1CC[C@]2(O)C(=O)CO [Prednisolone] (top concentration 10000 nM)	3.5
CC(C)(C)c1cc(NC(=O)Nc2ccc(-c3cn4c(n3)sc3cc(OCCN5CCOCC5)ccc34)cc2)no1 [Quizartinib] (top concentration 1000 nM)	1.88
Nc1cc(F)ccc1NC(=O)/C=C/c1cnn(C/C=C/c2ccccc2)c1 [RGFP966] (top concentration 10000 nM)	18.2
CNC(=O)c1cc(Oc2ccc(NC(=O)Nc3ccc(Cl)c(C(F)(F)F)c3)c(F)c2)ccn1 [Regorafenib] (top concentration 10000 nM)	3.34
CN(C)Cc1ccc(S(=O)(=O)n2ccc(/C=C/C(=O)NO)c2)cc1 [Resminostat] (top concentration 10000 nM)	4.54
COc1cc(OC)c(/C=C/S(=O)(=O)Cc2ccc(OC)c(NCC(=O)O)c2)c(OC)c1 [Rigosertib] (top concentration 10000 nM)	18.8
COc1ccc(CCc2nc3cc(-c4c(C)noc4C)ccc3n2C[C@H](C)N2CCOCC2)cc1Cl [SGC-CBP30] (top concentration 25000 nM)	6.58
CCS(=O)(=O)c1cccc(-c2cc(C(=O)NC3CCN(C)CC3)c(C)c3[nH]c4ncc(C)cc4c23)c1 [TAK-901] (top concentration 1000 nM)	12.6
Nc1nc(NC2CC2)cc(-c2cccc(Cl)c2Cl)n1 [TH588] (top concentration 25000 nM)	16.3
CC(=O)Nc1ccc(C(=O)Nc2ccccc2N)cc1 [Tacedinaline] (top concentration 1000 nM)	-0.02
Cn1ncnc1[C@H]1c2n[nH]c(=O)c3cc(F)cc(c23)N[C@@H]1c1ccc(F)cc1 [Talazoparib] (top concentration 1000 nM)	19.1
COc1cccc2c1c(O)c(C(=O)N(C)c1ccc(C(F)(F)F)cc1)c(=O)n2C [Tasquinimod] (top concentration 10000 nM)	-0.42
Nc1nc2[nH]cnc2c(=S)[nH]1 [Thioguanine] (top concentration 10000 nM)	15.2

The compounds below were run on TMD5 in the same assay as above. Settings: 72 h.

SMILES	selective drug sensitivity score
C1=N/C2=N/c3ccc(OCCN4CCCC4)c(c3)COC/C=C/COCc3cccc(c3)C(=C1)N2 [Pacritinib] (top concentration 10000 nM)	-9.2
Cc1[nH]c2ccccc2c1CCNCc1ccc(/C=C/C(=O)NO)cc1 [Panobinostat] (top concentration 1000 nM)	2.74
Cc1ccc(Nc2nccc(N(C)c3ccc4c(C)n(C)nc4c3)n2)cc1S(N)(=O)=O [Pazopanib] (top concentration 10000 nM)	4.54
Nc1nc2[nH]cc(CCc3ccc(C(=O)N[C@@H](CCC(=O)O)C(=O)O)cc3)c2c(=O)[nH]1 [Pemetrexed] (top concentration 10000 nM)	-0.72
Cc1ccc(C(=O)Nc2ccc(CN3CCN(C)CC3)c(C(F)(F)F)c2)cc1C#Cc1cnc2cccnn12 [Ponatinib] (top concentration 1000 nM)	19
C[C@]12C=CC(=O)C=C1CC[C@@H]1[C@@H]2[C@@H](O)C[C@@]2(C)[C@H]1CC[C@]2(O)C(=O)CO [Prednisolone] (top concentration 10000 nM)	4.8
CC(C)(C)c1cc(NC(=O)Nc2ccc(-c3cn4c(n3)sc3cc(OCCN5CCOCC5)ccc34)cc2)no1 [Quizartinib] (top concentration 1000 nM)	-1.52
Nc1cc(F)ccc1NC(=O)/C=C/c1cnn(C/C=C/c2ccccc2)c1 [RGFP966] (top concentration 10000 nM)	8.54
CNC(=O)c1cc(Oc2ccc(NC(=O)Nc3ccc(Cl)c(C(F)(F)F)c3)c(F)c2)ccn1 [Regorafenib] (top concentration 10000 nM)	2.74
CN(C)Cc1ccc(S(=O)(=O)n2ccc(/C=C/C(=O)NO)c2)cc1 [Resminostat] (top concentration 10000 nM)	0.34
COc1cc(OC)c(/C=C/S(=O)(=O)Cc2ccc(OC)c(NCC(=O)O)c2)c(OC)c1 [Rigosertib] (top concentration 10000 nM)	8.16
COc1ccc(CCc2nc3cc(-c4c(C)noc4C)ccc3n2C[C@H](C)N2CCOCC2)cc1Cl [SGC-CBP30] (top concentration 25000 nM)	-2.62
CCS(=O)(=O)c1cccc(-c2cc(C(=O)NC3CCN(C)CC3)c(C)c3[nH]c4ncc(C)cc4c23)c1 [TAK-901] (top concentration 1000 nM)	7.16
Nc1nc(NC2CC2)cc(-c2cccc(Cl)c2Cl)n1 [TH588] (top concentration 25000 nM)	-0.28
CC(=O)Nc1ccc(C(=O)Nc2ccccc2N)cc1 [Tacedinaline] (top concentration 1000 nM)	10.6
Cn1ncnc1[C@H]1c2n[nH]c(=O)c3cc(F)cc(c23)N[C@@H]1c1ccc(F)cc1 [Talazoparib] (top concentration 1000 nM)	-1.52
COc1cccc2c1c(O)c(C(=O)N(C)c1ccc(C(F)(F)F)cc1)c(=O)n2C [Tasquinimod] (top concentration 10000 nM)	-0.42
Nc1nc2[nH]cnc2c(=S)[nH]1 [Thioguanine] (top concentration 10000 nM)	-3.46

What follows are compounds tested on KASUMI-2 in the same assay as above. Settings: 72 h.

SMILES	selective drug sensitivity score
C1=N/C2=N/c3ccc(OCCN4CCCC4)c(c3)COC/C=C/COCc3cccc(c3)C(=C1)N2 [Pacritinib] (top concentration 10000 nM)	-2.3
Cc1[nH]c2ccccc2c1CCNCc1ccc(/C=C/C(=O)NO)cc1 [Panobinostat] (top concentration 1000 nM)	14.3
Cc1ccc(Nc2nccc(N(C)c3ccc4c(C)n(C)nc4c3)n2)cc1S(N)(=O)=O [Pazopanib] (top concentration 10000 nM)	3.44
Nc1nc2[nH]cc(CCc3ccc(C(=O)N[C@@H](CCC(=O)O)C(=O)O)cc3)c2c(=O)[nH]1 [Pemetrexed] (top concentration 10000 nM)	19.3
Cc1ccc(C(=O)Nc2ccc(CN3CCN(C)CC3)c(C(F)(F)F)c2)cc1C#Cc1cnc2cccnn12 [Ponatinib] (top concentration 1000 nM)	-1.78
C[C@]12C=CC(=O)C=C1CC[C@@H]1[C@@H]2[C@@H](O)C[C@@]2(C)[C@H]1CC[C@]2(O)C(=O)CO [Prednisolone] (top concentration 10000 nM)	13.5
CC(C)(C)c1cc(NC(=O)Nc2ccc(-c3cn4c(n3)sc3cc(OCCN5CCOCC5)ccc34)cc2)no1 [Quizartinib] (top concentration 1000 nM)	-1.52
Nc1cc(F)ccc1NC(=O)/C=C/c1cnn(C/C=C/c2ccccc2)c1 [RGFP966] (top concentration 10000 nM)	8.24
CNC(=O)c1cc(Oc2ccc(NC(=O)Nc3ccc(Cl)c(C(F)(F)F)c3)c(F)c2)ccn1 [Regorafenib] (top concentration 10000 nM)	10
CN(C)Cc1ccc(S(=O)(=O)n2ccc(/C=C/C(=O)NO)c2)cc1 [Resminostat] (top concentration 10000 nM)	11.7
COc1cc(OC)c(/C=C/S(=O)(=O)Cc2ccc(OC)c(NCC(=O)O)c2)c(OC)c1 [Rigosertib] (top concentration 10000 nM)	14.6
COc1ccc(CCc2nc3cc(-c4c(C)noc4C)ccc3n2C[C@H](C)N2CCOCC2)cc1Cl [SGC-CBP30] (top concentration 25000 nM)	-2.12
CCS(=O)(=O)c1cccc(-c2cc(C(=O)NC3CCN(C)CC3)c(C)c3[nH]c4ncc(C)cc4c23)c1 [TAK-901] (top concentration 1000 nM)	7.56
Nc1nc(NC2CC2)cc(-c2cccc(Cl)c2Cl)n1 [TH588] (top concentration 25000 nM)	-0.58
CC(=O)Nc1ccc(C(=O)Nc2ccccc2N)cc1 [Tacedinaline] (top concentration 1000 nM)	-0.02
Cn1ncnc1[C@H]1c2n[nH]c(=O)c3cc(F)cc(c23)N[C@@H]1c1ccc(F)cc1 [Talazoparib] (top concentration 1000 nM)	13.2
COc1cccc2c1c(O)c(C(=O)N(C)c1ccc(C(F)(F)F)cc1)c(=O)n2C [Tasquinimod] (top concentration 10000 nM)	-0.42
Nc1nc2[nH]cnc2c(=S)[nH]1 [Thioguanine] (top concentration 10000 nM)	2.54

The compounds below were run on P30-OHKUBO in the same assay as above. Settings: 72 h.

SMILES	selective drug sensitivity score
C1=N/C2=N/c3ccc(OCCN4CCCC4)c(c3)COC/C=C/COCc3cccc(c3)C(=C1)N2 [Pacritinib] (top concentration 10000 nM)	1.2
Cc1[nH]c2ccccc2c1CCNCc1ccc(/C=C/C(=O)NO)cc1 [Panobinostat] (top concentration 1000 nM)	6.64
Cc1ccc(Nc2nccc(N(C)c3ccc4c(C)n(C)nc4c3)n2)cc1S(N)(=O)=O [Pazopanib] (top concentration 10000 nM)	5.14
Nc1nc2[nH]cc(CCc3ccc(C(=O)N[C@@H](CCC(=O)O)C(=O)O)cc3)c2c(=O)[nH]1 [Pemetrexed] (top concentration 10000 nM)	26.4
Cc1ccc(C(=O)Nc2ccc(CN3CCN(C)CC3)c(C(F)(F)F)c2)cc1C#Cc1cnc2cccnn12 [Ponatinib] (top concentration 1000 nM)	9.02
C[C@]12C=CC(=O)C=C1CC[C@@H]1[C@@H]2[C@@H](O)C[C@@]2(C)[C@H]1CC[C@]2(O)C(=O)CO [Prednisolone] (top concentration 10000 nM)	15
CC(C)(C)c1cc(NC(=O)Nc2ccc(-c3cn4c(n3)sc3cc(OCCN5CCOCC5)ccc34)cc2)no1 [Quizartinib] (top concentration 1000 nM)	0.68
Nc1cc(F)ccc1NC(=O)/C=C/c1cnn(C/C=C/c2ccccc2)c1 [RGFP966] (top concentration 10000 nM)	14
CNC(=O)c1cc(Oc2ccc(NC(=O)Nc3ccc(Cl)c(C(F)(F)F)c3)c(F)c2)ccn1 [Regorafenib] (top concentration 10000 nM)	4.04
CN(C)Cc1ccc(S(=O)(=O)n2ccc(/C=C/C(=O)NO)c2)cc1 [Resminostat] (top concentration 10000 nM)	7.94
COc1cc(OC)c(/C=C/S(=O)(=O)Cc2ccc(OC)c(NCC(=O)O)c2)c(OC)c1 [Rigosertib] (top concentration 10000 nM)	16.9
COc1ccc(CCc2nc3cc(-c4c(C)noc4C)ccc3n2C[C@H](C)N2CCOCC2)cc1Cl [SGC-CBP30] (top concentration 25000 nM)	1.88
CCS(=O)(=O)c1cccc(-c2cc(C(=O)NC3CCN(C)CC3)c(C)c3[nH]c4ncc(C)cc4c23)c1 [TAK-901] (top concentration 1000 nM)	12.8
Nc1nc(NC2CC2)cc(-c2cccc(Cl)c2Cl)n1 [TH588] (top concentration 25000 nM)	4.02
CC(=O)Nc1ccc(C(=O)Nc2ccccc2N)cc1 [Tacedinaline] (top concentration 1000 nM)	2.58
Cn1ncnc1[C@H]1c2n[nH]c(=O)c3cc(F)cc(c23)N[C@@H]1c1ccc(F)cc1 [Talazoparib] (top concentration 1000 nM)	9.68
COc1cccc2c1c(O)c(C(=O)N(C)c1ccc(C(F)(F)F)cc1)c(=O)n2C [Tasquinimod] (top concentration 10000 nM)	-0.42
Nc1nc2[nH]cnc2c(=S)[nH]1 [Thioguanine] (top concentration 10000 nM)	11.6

The compounds below were run on MHH-CALL-4 in the same assay as above. Settings: 72 h.

SMILES	selective drug sensitivity score
C1=N/C2=N/c3ccc(OCCN4CCCC4)c(c3)COC/C=C/COCc3cccc(c3)C(=C1)N2 [Pacritinib] (top concentration 10000 nM)	-5.3
Cc1[nH]c2ccccc2c1CCNCc1ccc(/C=C/C(=O)NO)cc1 [Panobinostat] (top concentration 1000 nM)	4.94
Cc1ccc(Nc2nccc(N(C)c3ccc4c(C)n(C)nc4c3)n2)cc1S(N)(=O)=O [Pazopanib] (top concentration 10000 nM)	-1.26
Nc1nc2[nH]cc(CCc3ccc(C(=O)N[C@@H](CCC(=O)O)C(=O)O)cc3)c2c(=O)[nH]1 [Pemetrexed] (top concentration 10000 nM)	15.2
Cc1ccc(C(=O)Nc2ccc(CN3CCN(C)CC3)c(C(F)(F)F)c2)cc1C#Cc1cnc2cccnn12 [Ponatinib] (top concentration 1000 nM)	4.72
C[C@]12C=CC(=O)C=C1CC[C@@H]1[C@@H]2[C@@H](O)C[C@@]2(C)[C@H]1CC[C@]2(O)C(=O)CO [Prednisolone] (top concentration 10000 nM)	25.5
CC(C)(C)c1cc(NC(=O)Nc2ccc(-c3cn4c(n3)sc3cc(OCCN5CCOCC5)ccc34)cc2)no1 [Quizartinib] (top concentration 1000 nM)	-1.52
Nc1cc(F)ccc1NC(=O)/C=C/c1cnn(C/C=C/c2ccccc2)c1 [RGFP966] (top concentration 10000 nM)	2.94
CNC(=O)c1cc(Oc2ccc(NC(=O)Nc3ccc(Cl)c(C(F)(F)F)c3)c(F)c2)ccn1 [Regorafenib] (top concentration 10000 nM)	2.74
CN(C)Cc1ccc(S(=O)(=O)n2ccc(/C=C/C(=O)NO)c2)cc1 [Resminostat] (top concentration 10000 nM)	7.04
COc1cc(OC)c(/C=C/S(=O)(=O)Cc2ccc(OC)c(NCC(=O)O)c2)c(OC)c1 [Rigosertib] (top concentration 10000 nM)	8.26
COc1ccc(CCc2nc3cc(-c4c(C)noc4C)ccc3n2C[C@H](C)N2CCOCC2)cc1Cl [SGC-CBP30] (top concentration 25000 nM)	1.68
CCS(=O)(=O)c1cccc(-c2cc(C(=O)NC3CCN(C)CC3)c(C)c3[nH]c4ncc(C)cc4c23)c1 [TAK-901] (top concentration 1000 nM)	3.16
Nc1nc(NC2CC2)cc(-c2cccc(Cl)c2Cl)n1 [TH588] (top concentration 25000 nM)	-0.58
CC(=O)Nc1ccc(C(=O)Nc2ccccc2N)cc1 [Tacedinaline] (top concentration 1000 nM)	9.18
Cn1ncnc1[C@H]1c2n[nH]c(=O)c3cc(F)cc(c23)N[C@@H]1c1ccc(F)cc1 [Talazoparib] (top concentration 1000 nM)	10.2
COc1cccc2c1c(O)c(C(=O)N(C)c1ccc(C(F)(F)F)cc1)c(=O)n2C [Tasquinimod] (top concentration 10000 nM)	0.68
Nc1nc2[nH]cnc2c(=S)[nH]1 [Thioguanine] (top concentration 10000 nM)	4.34
